Source: patent US20110184025A1, “Methods and Compositions Using Immunomodulatory Compounds for the Treatment and Management of Spirochete and Other Obligate Intracellular Bacterial Diseases” (priority 2006, published 2011)

Columns and labels:
IL-2 = test: Augmentation of IL-2 production following TCR activation of PBMC; format: cell-based
IL-10 = test: LPS-stimulated production of IL-10 by PBMC; format: cell-based
IFN-γ = test: Augmentation of IFN-γ production following TCR activation of T-cells; format: cell-based
T-cells = test: Stimulation of T-cell proliferation following primary induction by TCR activation; format: cell-based
Beagle dogs = test: Cardiovascular and respiratory function in anesthetized dogs; conditions: anesthetized Beagle dogs, 2, 10 and 20 mg/kg infusion via jugular vein, all doses
[1] = Form A: among anhydrous polymorphs; Form E: in aqueous solvent systems; cited from earlier work

| SMILES | Potency relative to thalidomide in augmenting production of IL-2 (IL-2) | Effect on production of IL-10 by PBMC (IL-10) | Potency relative to thalidomide in augmenting production of IFN-γ (IFN-γ) | Potency relative to thalidomide in stimulating proliferation of T-cells (T-cells) | Cardiovascular and respiratory changes compared to vehicle control (Beagle dogs) | Relative stability of polymorph [1] |
| --- | --- | --- | --- | --- | --- | --- |
| Nc1cccc2c1CN(C1CCC(=O)NC1=O)C2=O (stereo not shown) | 50-100 times | increased production | 50-100 times | 50-100 times | minimal |  |
| Nc1cccc2c1CN(C1CCC(=O)NC1=O)C2=O (stereo not shown) [Form A, 3-(4-amino-1-oxo-1,3 dihydro-isoindol-2-yl)-piperidene-2,6-dione] |  |  |  |  |  | most thermodynamically stable anhydrous polymorph |
| Nc1cccc2c1CN(C1CCC(=O)NC1=O)C2=O (stereo not shown) [Form E, 3-(4-amino-1-oxo-1,3 dihydro-isoindol-2-yl)-piperidene-2,6-dione] |  |  |  |  |  | most stable form |
